Measured values published in ChEMBL document CHEMBL4118246, “Discovery and evaluation of 3,5-disubstituted indole derivatives as Pim kinase inhibitors” (Bioorg Med Chem Lett, 2018).

What was measured:
[1] = target: Serine/threonine-protein kinase pim-2 (Homo sapiens, UniProt Q9P1W9); test: Inhibition of PIM2 (unknown origin)
[2] = target: Serine/threonine-protein kinase pim-3 (Homo sapiens, UniProt Q86V86); test: Inhibition of PIM3 (unknown origin)
[3] = target: Serine/threonine-protein kinase pim-1 (Homo sapiens, UniProt P11309)
Description: Inhibition of PIM1 (unknown origin)

[4] = system: MV4-11; test: Growth inhibition of human MV4-11 cells; type: functional, cell-based
[5] = system: HepG2; test: Cell cycle arrest in human HepG2 cells assessed as accumulation at sub-G1 phase at 1 uM by FACS analysis relative to control; type: functional
[6] = system: HepG2; test: Cell cycle arrest in human HepG2 cells assessed as accumulation at sub-G1 phase at 10 uM by FACS analysis relative to control; type: functional
[7] = system: HepG2; test: Cell cycle arrest in human HepG2 cells assessed as accumulation at G0/G1 phase at 1 uM by FACS analysis relative to control; type: functional
[8] = system: HepG2; test: Cell cycle arrest in human HepG2 cells assessed as accumulation at G0/G1 phase at 10 uM by FACS analysis relative to control; type: functional
[9] = system: HepG2; test: Cell cycle arrest in human HepG2 cells assessed as accumulation at S phase at 1 uM by FACS analysis relative to control; type: functional
[10] = system: HepG2; test: Cell cycle arrest in human HepG2 cells assessed as accumulation at S phase at 10 uM by FACS analysis relative to control; type: functional
[11] = system: HepG2; test: Cell cycle arrest in human HepG2 cells assessed as accumulation at G2/M phase at 1 uM by FACS analysis relative to control; type: functional
[12] = system: HepG2; test: Cell cycle arrest in human HepG2 cells assessed as accumulation at G2/M phase at 10 uM by FACS analysis relative to control; type: functional

Sequence of Serine/threonine-protein kinase pim-1 (P11309 whole entry): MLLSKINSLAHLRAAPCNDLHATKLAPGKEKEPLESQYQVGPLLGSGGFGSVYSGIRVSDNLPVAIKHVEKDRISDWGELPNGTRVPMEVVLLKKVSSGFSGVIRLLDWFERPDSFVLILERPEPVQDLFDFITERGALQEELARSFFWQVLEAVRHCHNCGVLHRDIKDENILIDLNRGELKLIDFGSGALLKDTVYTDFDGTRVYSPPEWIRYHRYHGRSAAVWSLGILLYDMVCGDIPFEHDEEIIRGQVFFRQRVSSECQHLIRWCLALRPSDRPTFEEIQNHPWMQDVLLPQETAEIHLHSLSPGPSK
Sequence of Serine/threonine-protein kinase pim-2 (Q9P1W9 whole entry): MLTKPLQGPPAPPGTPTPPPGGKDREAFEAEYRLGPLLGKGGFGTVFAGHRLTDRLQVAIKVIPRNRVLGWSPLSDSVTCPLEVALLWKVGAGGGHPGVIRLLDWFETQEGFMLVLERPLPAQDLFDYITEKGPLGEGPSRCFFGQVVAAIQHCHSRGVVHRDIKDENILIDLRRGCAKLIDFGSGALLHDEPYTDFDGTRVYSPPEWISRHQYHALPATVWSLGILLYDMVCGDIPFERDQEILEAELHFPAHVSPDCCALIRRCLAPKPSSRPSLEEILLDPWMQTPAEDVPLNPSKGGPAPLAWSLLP

Row | Compound | IC50 [1] [nM] | IC50 [2] [nM] | IC50 [3] [nM] | further results
1 | CN(C)CCNc1cncc(-c2ccc3[nH]cc(-c4cc(C(=O)O)ccc4F)c3c2)n1 | 1430 | 137 | 23 | 
2 | CN(C)CCNc1cncc(-c2ccc3[nH]cc(-c4cccc(C#N)c4)c3c2)n1 | 770 | 60 | 21 | 
3 | CN(C)CCNc1cncc(-c2ccc3[nH]cc(-c4ccc(C#N)cc4)c3c2)n1 | 2540 | 155 | 33 | 
4 | CN(C)CCNc1cncc(-c2ccc3[nH]cc(-c4ccccc4F)c3c2)n1 | 370 | 10 | 7 | 
5 | CN(C)CCNc1cncc(-c2ccc3[nH]cc(-c4cccc(N)c4)c3c2)n1 | 820 | 40 | 19 | 
6 | CN(C)CCNc1cncc(-c2ccc3[nH]cc(-c4ccc(OC(F)(F)F)cc4)c3c2)n1 | 4440 | 236 | 96 | 
7 | CN(C)CCNc1cncc(-c2ccc3[nH]cc(-c4cc(C#N)ccc4F)c3c2)n1 | 841 | 18 | 9 | IC50 [4]: 2900 nM; Activity [5]: 2.4%; Activity [6]: 5.7%; Activity [7]: 53.5%; Activity [8]: 37.6%; Activity [9]: 20.6%; Activity [10]: 28.3%; Activity [11]: 17%; Activity [12]: 19%
8 | CN(C)CCCOc1cncc(-c2ccc3[nH]cc(-c4ccc(C(F)(F)F)cc4)c3c2)n1 | > 10000 | 905 | 307 | 
9 | NCCNc1cncc(-c2ccc3[nH]cc(-c4ccccc4F)c3c2)n1 | 230 | 7 | 5 | 
10 | Fc1ccccc1-c1c[nH]c2ccc(-c3cncc(N4CCCNCC4)n3)cc12 | 537 | 16 | 12 | 
11 | CN(C)CCNc1cncc(-c2ccc3[nH]cc(-c4cccc(OC(F)(F)F)c4)c3c2)n1 | 2780 | 128 | 134 | 
12 | CN(C)CCNc1cncc(-c2ccc3[nH]cc(-c4ccc(F)cc4)c3c2)n1 | 1620 | 82 | 22 | 
13 | CN(C)CCNc1cncc(-c2ccc3[nH]cc(-c4ccc(N)c(C#N)c4)c3c2)n1 | 259 | 10 | 5 | IC50 [4]: 800 nM; Activity [5]: 3.4%; Activity [6]: 2.6%; Activity [7]: 52.3%; Activity [8]: 53%; Activity [9]: 21.7%; Activity [10]: 23.1%; Activity [11]: 16.5%; Activity [12]: 15.8%
14 | Cc1ccc(-c2c[nH]c3ccc(-c4cncc(NCCN(C)C)n4)cc23)cc1 | 1800 | 33 | 19 | 
15 | CN1CCC(CNc2ccc3ncc(-c4cccc(OC(F)(F)F)c4)n3n2)CC1 [SGI-1776] |  |  |  | IC50 [4]: 30 nM; Activity [5]: 16%; Activity [6]: 52.3%; Activity [7]: 44.2%; Activity [8]: 36.9%; Activity [9]: 19.8%; Activity [10]: 8.3%; Activity [11]: 13.3%; Activity [12]: 1.9%
16 | CN(C)CCN(C)c1cncc(-c2ccc3[nH]cc(-c4ccc(C(F)(F)F)cc4)c3c2)n1 | > 10000 | 401 | 313 | 
17 | CN(C)CCNc1cncc(-c2ccc3[nH]cc(-c4ccc(N)cc4F)c3c2)n1 | 267 | 9 | 3 | IC50 [4]: 1700 nM
18 | CN(C)CCNc1cncc(-c2ccc3[nH]cc(-c4ccc(C(F)(F)F)c(F)c4)c3c2)n1 | 7950 | 589 | 256 | 
19 | CN(C)CCNc1cncc(-c2ccc3[nH]cc(-c4ccc(S(N)(=O)=O)cc4)c3c2)n1 | 700 | 26 | 9 | IC50 [4]: 6800 nM; Activity [5]: 2.4%; Activity [6]: 2.4%; Activity [7]: 55.5%; Activity [8]: 58%; Activity [9]: 21.3%; Activity [10]: 19.8%; Activity [11]: 15.3%; Activity [12]: 14.6%
20 | CN(C)CCCNc1cncc(-c2ccc3[nH]cc(-c4ccc(C(F)(F)F)cc4)c3c2)n1 | > 10000 | 368 | 195 | 
21 | O=C1NCCN1c1cncc(-c2ccc3[nH]cc(-c4ccccc4F)c3c2)n1 | > 10000 | 273 | 257 | 

Row | Compound | IC50 [1] [nM] | IC50 [2] [nM] | IC50 [3] [nM] | further results
22 | CN(C)CCNc1cncc(-c2ccc3[nH]cc(-c4cccc(F)c4F)c3c2)n1 | 645 | 22 | 9 | IC50 [4]: 2600 nM; Activity [5]: 2.8%; Activity [6]: 74.2%; Activity [7]: 56%; Activity [8]: 22.6%; Activity [9]: 19.2%; Activity [10]: 3.2%; Activity [11]: 16.2%; Activity [12]: 0%
23 | FC(F)(F)c1ccc(-c2c[nH]c3ccc(-c4cncc(N5CCNCC5)n4)cc23)cc1 | 2120 | 241 | 260 | 
24 | COc1ccc(-c2c[nH]c3ccc(-c4cncc(NCCN(C)C)n4)cc23)cc1 | 870 | 30 | 9 | 
25 | CN(C)CCNc1cncc(-c2ccc3[nH]cc(-c4ccc(C(F)(F)F)cc4)c3c2)n1 | 5800 | 247 | 67 | 
26 | NC1CCCN(c2cncc(-c3ccc4[nH]cc(-c5ccccc5F)c4c3)n2)C1 (stereo unspecified) | 1380 | 11 | 7 | 
27 | CN(C)CCNc1cncc(-c2ccc3[nH]cc(-c4ccc(S(C)(=O)=O)cc4)c3c2)n1 | 2160 | 50 | 21 | IC50 [4]: 7300 nM; Activity [5]: 1.6%; Activity [6]: 2.7%; Activity [7]: 51.7%; Activity [8]: 52.5%; Activity [9]: 20.7%; Activity [10]: 20.9%; Activity [11]: 19.3%; Activity [12]: 17.9%
28 | CN(C)CCNc1cncc(-c2ccc3[nH]cc(-c4ccc(F)c(C(F)(F)F)c4)c3c2)n1 | 4320 | 183 | 144 | 
29 | CN(C)CCNc1cncc(-c2ccc3[nH]cc(-c4cccc(F)c4)c3c2)n1 | 650 | 35 | 30 | 
30 | COc1cccc(-c2c[nH]c3ccc(-c4cncc(NCCN(C)C)n4)cc23)c1 | 560 | 19 | 7 | 
31 | CN(C)CCNc1cncc(-c2ccc3[nH]cc(-c4ccnc(N)n4)c3c2)n1 |  | 7 | 3 | 
32 | Cc1cccc(-c2c[nH]c3ccc(-c4cncc(NCCN(C)C)n4)cc23)c1 | 830 | 29 | 21 | 
33 | FC(F)(F)c1ccc(-c2c[nH]c3ccc(-c4cncc(OC5CCNCC5)n4)cc23)cc1 | 4350 | 204 | 187 | 
34 | CN(C)CCNc1cncc(-c2ccc3[nH]cc(-c4ccc(-c5ccccc5)cc4)c3c2)n1 | 5330 | 417 | 160 | 
35 | CN(C)CCOc1cncc(-c2ccc3[nH]cc(-c4ccc(C(F)(F)F)cc4)c3c2)n1 | > 10000 | 877 | 443 | 
36 | CN(C)CCCN(C)c1cncc(-c2ccc3[nH]cc(-c4ccc(C(F)(F)F)cc4)c3c2)n1 | > 10000 | 475 | 209 | 
37 | CCOc1cncc(-c2ccc3[nH]cc(-c4ccccc4)c3c2)n1 | > 10000 | > 10000 | > 10000 | 
38 | CN(C)CCNc1cncc(-c2ccc3[nH]cc(-c4ccc(N)cc4)c3c2)n1 | 460 | 29 | 8 | 
39 | Brc1ccc2[nH]cc(-c3ccccc3)c2c1 |  |  | > 10000 | 
40 | CC(=O)c1ccc(F)c(-c2c[nH]c3ccc(-c4cncc(NCCN(C)C)n4)cc23)c1 | 220 | 7 | 3 | IC50 [4]: 6300 nM
41 | CN(C)CCNc1cncc(-c2ccc3[nH]cc(-c4cccc(C(F)(F)F)c4)c3c2)n1 | 2260 | 69 | 35 | 
42 | OCCc1cncc(-c2ccc3[nH]cc(-c4ccccc4F)c3c2)n1 | > 10000 | 3050 | 885 | 
